According to patent US4861897A, “2-Aryloxyalkylaminobenzoxazoles and 2-aryloxyalkylaminobenzothiazoles” (Ortho Pharmaceutical Corporation, priority 1987, dated 1989):
Like-named read-outs stand apart in the source and are kept apart here.

Legend:
[1] = tested on: histamine stimulated parietal cell; assay: Isolated parietal cell assay, inhibition of 14C-aminopyrine accumulation, histamine stimulated; format: cell-based, rabbit; conditions: Example 48, 37° C., read-out: IC50 vhist (inhibition of 14C-AP accumulation in histamine stimulated parietal cell)
Method: (§1) Isolated Parietal Cell Assay
(§2) The isolated parietal cell assay was conducted using the procedures of Batzri, S. et al., Biochemica et Biophysica Acta 508, 328 (1978) and Soll, A. H. Am. J. Physiol. 238, G366 (1980). Basically, parietal cells were isolated from the fundic mucosa of rabbit stomachs by a four-stage collagenase digestion process. The supernatant fractions from the last two stages of this process contain the individual parietal cells. This cell suspension was centrifuged and reconstituted in a modified Hank's buffer to contain 1-2×10^6 cells/ml. […] This accumulation was stimulated by histamine and was blocked by H2 antagonists. The cells were incubated with 0.4-0.5×10^6 cpm ^14 C-AP, with various concentrations of histamine as a stimulant, 1×10^-5 M isobutylmethylxanthine, and the test compound added in a 20 μl volume of buffer or DMSO. The flasks were incubated in a shaking water bath at 37° C. for 20 minutes. Two aliquots were then taken from each flask and cell pellets were collected by centrifugation. The pellets were solubilized with Protosol (New England Nuclear) and radioactivity determined by liquid scintillation spectrometry. Data is presented as the IC50 vhist, the concentration of compound required to inhibit ^14 C-AP accumulation in the histamine stimulated parietal cell by 50%. When dibutyryl cAMP was used to stimulate the cells instead of histamine, a similar inhibition of ^14 C-AP accumulation was measured and the data are presented as the IC50 vcAMP, the concentration required to inhibit ^14 C-AP accumulation in the cAMP stimulated parietal cells by 50%.

[2] = tested on: cAMP stimulated parietal cells; assay: Isolated parietal cell assay, inhibition of 14C-aminopyrine accumulation, dibutyryl cAMP stimulated; format: cell-based, rabbit; conditions: Example 48, 37° C., read-out: IC50 vcAMP (inhibition of 14C-AP accumulation in cAMP stimulated parietal cells)
Method: as §1, §2

[3] = target: T1, parietal cell H^+ K^+ ATPase (Oryctolagus cuniculus, UniProt P27112); assay: Inhibition of parietal cell H+ K+ ATPase; format: biochemical, New Zealand white rabbits; conditions: Example 49; for IC50: given as "50% @ x μM", read-out: % Inhibition at Concentration (H+ K+ ATPase): concentration given for 50% inhibition; for inhibition at 100 µM: @ 10^-4 M, read-out: % Inhibition at Concentration (H+ K+ ATPase)
T1 construct: determined in fundic mucosa from New Zealand white rabbits which were homogenized; from tissue; host or cells: fundic mucosa of New Zealand white rabbits, homogenized; membrane protein
Method: Inhibition of Parietal Cell H^+ K^+ ATPase
The activity was measured in a 1 ml incubation volume containing 50 mM Tris pH 7.4, 2 mM MgCl2, 2 mM Na2 ATP, with or without 20 mM KCl and vehicle control (dimethylsulfoxide) or test compound added in a 0.02 ml volume. Typically, 20-50 μg membrane protein was added and the tubes were preincubated with test compound for 10 minutes at 37° C. Substrate, Na2 ATP, was then added and the tubes were incubated for another 15 minutes at 37° C. The reaction was stopped by the addition of 1 ml 14% trichloroacetic acid and the samples were centrifuged at 2,000 xg for 10 minutes. The amount of inorganic phosphate present in an aliquot of supernatant was determined. H^+ K^+ ATPase activity was determined after correcting for the basal (Mg^++ only) enzyme activity present in the membrane preparation.

acid output = assay: Gastric secretion, acid output in pylorus ligated rats; format: in vivo, male Charles River Sprague Dawley derived rats; conditions: Example 50, i.d. or s.c., four hours after pylorus ligation, compared to control; for response vs control in vivo at 40 mg/kg / response vs control in vivo at 20 mg/kg: Rattus norvegicus, 4 h, read-out: % Acid Secreted at mpK; for response vs control in vivo at 40 mg/kg: @ 40 mpK
Method: The inhibitory activity of the compounds on acid output was tested using pylorus ligation in a modification of the procedure of Shay, H. et al., Gastroenterology 26, 906 (1954). Basically, male Charles River Sprague Dawley derived rats weighing 150-300 grams were deprived of food but not water for 18-24 hours prior to use. Water was withheld during the experiment, however. The rats were weighed, anesthetized with ether and the pylorus ligated according to the method of Shay et al., supra. Treatment or vehicle control was then administered intraduodenally (i.d.) or subcutaneously (s.c.). Rats were housed two/cage and sacrificed with CO2 four hours after ligation. The stomachs were removed, rinsed, and contents emptied into a graduated centrifuge tube. The tubes were centrifuged, the volume of gastric juice recorded, and any samples obviously contaminated by feces, food or blood were eliminated. A 1 ml aliquot of gastric juice was titrated with 0.1N NaOH to a pH of 7.0-7.4. The volume of gastric juice secreted, the acid concentration, and the product of the volume times the concentration, i.e., the total amount of acid secreted, were measured.

T1 sequence (P27112 2-1035 limits assumed): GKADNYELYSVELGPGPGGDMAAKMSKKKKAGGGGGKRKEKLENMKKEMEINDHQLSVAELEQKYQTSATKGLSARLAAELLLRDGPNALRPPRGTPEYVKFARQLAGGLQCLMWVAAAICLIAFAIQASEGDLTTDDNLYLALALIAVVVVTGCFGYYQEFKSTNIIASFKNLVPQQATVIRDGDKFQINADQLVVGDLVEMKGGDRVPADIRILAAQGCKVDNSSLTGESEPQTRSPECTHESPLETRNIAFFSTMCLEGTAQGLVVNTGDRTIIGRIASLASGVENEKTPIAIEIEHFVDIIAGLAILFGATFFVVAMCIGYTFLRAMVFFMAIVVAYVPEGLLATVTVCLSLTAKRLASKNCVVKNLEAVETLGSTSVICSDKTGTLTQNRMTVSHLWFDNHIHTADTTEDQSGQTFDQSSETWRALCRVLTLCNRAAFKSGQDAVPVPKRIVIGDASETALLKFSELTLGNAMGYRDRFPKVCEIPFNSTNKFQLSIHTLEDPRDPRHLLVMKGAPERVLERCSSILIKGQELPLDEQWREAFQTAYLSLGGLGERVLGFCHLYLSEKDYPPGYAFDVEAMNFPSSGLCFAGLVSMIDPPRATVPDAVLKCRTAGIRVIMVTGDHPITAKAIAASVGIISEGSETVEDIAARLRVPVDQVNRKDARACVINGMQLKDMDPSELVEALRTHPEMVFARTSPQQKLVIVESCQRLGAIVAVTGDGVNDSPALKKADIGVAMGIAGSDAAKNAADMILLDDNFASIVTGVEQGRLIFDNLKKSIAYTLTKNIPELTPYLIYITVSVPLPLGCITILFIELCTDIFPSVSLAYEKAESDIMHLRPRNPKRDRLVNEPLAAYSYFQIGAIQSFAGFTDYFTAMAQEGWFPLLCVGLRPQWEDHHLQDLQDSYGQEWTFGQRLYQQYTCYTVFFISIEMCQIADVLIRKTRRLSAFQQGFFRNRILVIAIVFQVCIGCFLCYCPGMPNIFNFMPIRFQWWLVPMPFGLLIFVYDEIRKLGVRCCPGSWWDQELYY
T1 sequence (P18597 whole entry partner): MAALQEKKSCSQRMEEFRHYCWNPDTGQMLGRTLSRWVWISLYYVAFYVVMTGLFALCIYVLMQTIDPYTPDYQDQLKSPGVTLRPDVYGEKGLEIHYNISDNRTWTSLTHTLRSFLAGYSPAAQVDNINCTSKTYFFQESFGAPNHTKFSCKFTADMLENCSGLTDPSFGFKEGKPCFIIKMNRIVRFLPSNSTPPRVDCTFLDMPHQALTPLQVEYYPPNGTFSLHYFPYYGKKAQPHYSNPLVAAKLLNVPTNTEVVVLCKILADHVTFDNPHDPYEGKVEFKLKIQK

Compound	IC50 ([1]; Oryctolagus cuniculus, 20 min) [µM]	IC50 ([2]; Oryctolagus cuniculus, 20 min) [µM]	IC50 [3] [µM]	response vs control in vivo at 40 mg/kg (acid output) [%]	% Acid Secreted at mpK (acid output; @ 10 mpK) [%]	response vs control in vivo at 20 mg/kg (acid output; @ 20 mpK) [%]	inhibition at 100 µM [3] [%]	IC50 ([1]; 20 minutes) [µM]	IC50 ([2]; 20 minutes) [µM]	% Acid Secreted at mpK (acid output; @ 20 mpK) [%]
C(=C\c1nc2ccccc2o1)/c1ccc(OCCCN2CCCCC2)cc1 [Example 12, (E)-2-[2-[4-(3-Piperidinopropoxy)phenyl]ethenyl]benzoxazole]	0.26	0.15	27	88	–	–	–	–	–	–
CCCCN(CCCC)CCCCOc1ccc(/C=C/c2nc3ccccc3o2)cc1 [Example 18]	0.18	< 10	20	–	14	–	–	–	–	–
CCN(CC)CCCCOc1ccc(/C=C/c2nc3ccccc3o2)cc1 [Example 22]	0.08	0.12	74	–	–	31	–	–	–	–
CCCCN(CCCC)CCCOc1ccc(/C=C/c2nc3ccc(OC)cc3s2)cc1 [Example 35, (E)-2-[2-(4-Dibutylaminopropoxyphenyl)ethenyl]-6-methoxybenzothiazole]	0.26	0.46	60	–	–	31	–	–	–	–
C(=C\c1nc2ccccc2s1)/c1cccc(OCCCCn2ccnc2)c1 [Example 27]	0.11	0.21	4.7	83	–	42	–	–	–	–
CCCN(CCC)CCCCOc1ccc(/C=C/c2nc3ccccc3s2)cc1 [Example 38]	0.03	0.12	21	93	–	–	–	–	–	–
CCCCN(CCCC)CCCOc1ccc(/C=C/c2nc3ccc(OC)cc3o2)cc1 [Example 16, (E)-2-[2-(4-Dibutylaminopropoxyphenyl)ethenyl]-6-methoxybenzoxazole]	0.08	0.05	26	64	–	–	–	–	–	–
C(=C\c1nc2ccccc2s1)/c1ccc(OCCn2ccnc2)cc1 [Example 39]	0.39	0.46	–	32	–	–	19	–	–	–
CCCN(CCC)CCCCOc1cccc(/C=C/c2nc3ccccc3s2)c1 [Example 26, (E)-2-[2-(3-Dipropylaminobutoxyphenyl)ethenyl]benzothiazole]	0.09	0.18	19	80	–	42	–	–	–	–
CCCN(CCC)CCCOc1ccc(-c2nc3ccccc3s2)cc1 [Example 44, 2-(4-Dipropylaminopropoxyphenyl)benzothiazole]	0.21	0.14	–	–	–	42	67	–	–	–
CCCCN(CCCC)CCCOc1ccc(/C=C/c2nc3cc(C)ccc3o2)cc1 [Example 15, (E)-2-[2-(4-Dibutylaminopropoxyphenyl)ethenyl]-5-methylbenzoxazole]	0.26	0.34	27	88	–	–	–	–	–	–
C(=C\c1nc2ccccc2o1)/c1ccc(OCCCCN2CCCCC2)cc1 [Example 19]	0.17	0.33	40	–	–	42	–	–	–	–
CN1CCN(CCCOc2cccc(/C=C/c3nc4ccccc4o3)c2)CC1 [Example 2, (E)-2-[2-[3-[3-(4-Methylpiperazino)propoxy]phenyl]ethenyl]benzoxazole]	1.2	0.41	94	–	–	9	–	–	–	–
C(=C\c1nc2ccccc2s1)/c1ccc(OCCCCN2CCCC2)cc1 [Example 42, (E)-2-[2-(4-Pyrrolidinobutoxyphenyl)ethenyl]benzothiazole]	0.16	0.26	17	20	–	–	–	–	–	–
C(=C\c1nc2ccccc2o1)/c1cccc(OCCCCn2ccnc2)c1 [Example 6]	0.28	0.23	13	–	–	45	–	–	–	–
C(=C\c1nc2ccccc2o1)/c1ccc(OCCCn2ccnc2)cc1 [Example 10, (E)-2-[2-(4-(1H-Imidazol-1-yl)propoxyphenyl)ethenyl]benzoxazole]	0.29	0.25	64	–	–	26	–	–	–	–
CCCCN(CCCC)CCCOc1ccc(/C=C/c2nc3ccccc3o2)cc1 [Example 8, (E)-2-[2-(4-Dibutylaminopropoxyphenyl)ethenyl]benzoxazole]	0.15	0.15	–	96	44	–	17	–	–	–
C(=C\c1nc2ccccc2o1)/c1ccc(OCCCCCn2ccnc2)cc1 [Example 24]	0.28	0.23	13	–	–	45	–	–	–	–
(E)-2-[2-[4-(3-Methylbenzylaminopropoxy)phenyl]ethenyl]benzoxazole [Example 13]	–	–	66	–	–	–	–	0.41	1.4	34
CCN(CC)CCCCOc1ccc(/C=C/c2nc3ccccc3s2)cc1 [Example 41]	0.18	0.35	44	–	–	52	–	–	–	–
